These molecules were tested against T1, 5-HT1A serotonin receptor (Rattus norvegicus, UniProt P19327) (assay: displacement of [^3 H] 8-OHDPAT (dipropylaminotetralin) from the 5-HT1A serotonin receptor (Hall et al.)). Details: read-out: 5-HT1A Binding (IC50).
T1 construct: following the procedure of Hall et al., J. Neurochem; 44 1685 (1985); from tissue
T1 sequence (P19327 1-422): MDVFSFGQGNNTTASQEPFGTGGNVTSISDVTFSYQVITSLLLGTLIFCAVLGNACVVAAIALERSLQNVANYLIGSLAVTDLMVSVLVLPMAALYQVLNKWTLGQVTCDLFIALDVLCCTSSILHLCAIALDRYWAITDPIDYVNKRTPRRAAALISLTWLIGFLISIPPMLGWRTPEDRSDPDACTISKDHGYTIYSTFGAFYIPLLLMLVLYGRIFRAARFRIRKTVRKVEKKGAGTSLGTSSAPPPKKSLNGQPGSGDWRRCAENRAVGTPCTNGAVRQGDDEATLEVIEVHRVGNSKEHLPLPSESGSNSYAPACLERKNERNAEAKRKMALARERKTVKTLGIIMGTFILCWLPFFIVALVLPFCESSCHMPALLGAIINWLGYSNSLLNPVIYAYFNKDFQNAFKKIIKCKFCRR
Procedure: High affinity for the serotonin 5-HT1A receptor for the compounds of this invention was established by testing them in accordance with the standard pharmacological test procedure in which the compound's ability to displace [^3 H] 8-OHDPAT (dipropylaminotetralin) from the 5-HT1A serotonin receptor was determined following the procedure of Hall et al., J. Neurochem. 44 1685 (1985).

**Q.** How did the IC50 turn out when `C[C@H](CN1CCc2c([nH]c3ccccc23)C1)N(C(=O)C1CCCCC1)c1ccccn1` [Example 1] was run?
**A.** 34.9 nM

**Q.** With `C[C@H](CN1CCc2c([nH]c3ccccc23)C1)N(C(=O)C12CC3CC(CC(C3)C1)C2)c1ccccn1` [Example 2] as the molecule, how does the IC50 read?
**A.** 32.5 nM

**Q.** `C[C@H](CN1CCc2c(n(C)c3ccccc23)C1)N(C(=O)C1CCCCC1)c1ccccn1` [Example 3] was tested. Which IC50 did it give?
**A.** 78.1 nM
